Experimental data reported in PMC11462627, “SAL0114: a novel deuterated dextromethorphan-bupropion combination with improved antidepressant efficacy and safety profile” (Frontiers in Pharmacology, 2024).
Like-named read-outs stand apart in the source and are kept apart here.

Tests used:
ICR mice [1] = test: Forced swim test; format: in vivo; conditions: FST, oral, 1 h after administration, deDM 10 and 18 mg/kg, BUP 50 mg/kg, deDM + BUP 10 + 50 and 18 + 50 mg/kg
Description: The mouse forced swim test was performed in a way similar to that published previously by Nguyen et al. ([Nguyen et al., 2017]) with some modifications. […] All compounds were administered orally via gavage at a volume of 10 mL/kg body weight, with the vehicle group receiving an equivalent volume of saline. 1 h after administration, mice underwent the forced swim test (FST), a widely used behavioral assay for evaluating antidepressant-like effects. Each mouse was individually placed in a transparent cylindrical tank filled with water (depth: 18 cm, temperature: 25°C ± 1°C) for a 6-min test session. The initial 2 min served as the acclimatization period and was not scored. Floating time during the subsequent 4 min was measured using ANY-Maze Version 4.63 video tracking software (Stoelting Co., Illinois, United States). Floating was defined as the minimum movement required to keep the animal’s head above water. Floating time (%) = floatting time(s)/240 s. The ANY-Maze software parameters were set as follows: acclimatization period = 120 s, test duration = 240 s, minimum immobility time = 2 s, and immobility sensitivity = 75%. To maintain consistent conditions, water was changed between the animals. […]

C57BL/6J mice = test: Ammonia-induced cough mouse model; format: in vivo; conditions: oral
Description: Antitussive effects were investigated using a classical mouse cough model induced by ammonia liquor, with some modifications ([Jiang et al., 2014]; [Adejayan et al., 2019]). An ammonia-induced cough model in male C57BL/6J mice was used to evaluate the antitussive effects using a two-step approach. The initial screening phase aimed to identify the mice with consistent and pronounced cough responses. Individual mice were exposed to 0.2 mL of 13% ammonium hydroxide solution in 500 mL glass vials. A trained observer measured the latency period and recorded the number of coughs over a 3-min period post-exposure. […] Following a 24-h recovery period, 70 eligible mice were randomly allocated to seven treatment groups (n = 10 per group) for the compound evaluation phase. […] All compounds were administered orally at a volume of 10 mL/kg. At 0.5 h post-administration, each mouse was re-exposed to 0.2 mL of 13% ammonia in a 500 mL glass jar for 1 min. Subsequently, the trained observer recorded the number of coughs over a 3-min period following removal from the jar. […] All experimental procedures were conducted in strict compliance with guidelines approved by the Institutional Animal Care and Use Committee of Shenzhen Salubris Pharmaceuticals Co., Ltd., ensuring adherence to ethical standards in animal research. A P value of less than 0.05 was considered statistically significant for comparisons between groups.

ICR mice [2] = test: Tail suspension test; format: in vivo; conditions: TST, oral, 1 h after administration, deDM 10 and 18 mg/kg, BUP 50 mg/kg, deDM + BUP 10 + 50 and 18 + 50 mg/kg
Description: The TST was adapted from the behavioral despair test described by Nguyen et al. ([Nguyen et al., 2017]), with some modifications. […] All compounds were administered orally via gavage at a volume of 10 mL/kg body weight, with the vehicle group receiving an equivalent volume of saline. One hour after administration, mice underwent a tail suspension test (TST). For the TST, each mouse was suspended by its tail, with adhesive tape attached 2 cm from the tail tip and secured to a metal rod. Care was taken to ensure a minimum distance of 15 cm between the suspended animal and the surrounding objects. The test was performed using the ANY-maze version 4.63 video tracking program (Stoelting Co., Wood Dale, IL, United States) for a total duration of 6 min. The initial 2 min served as an acclimatization period and were not scored. The immobility time during the subsequent 4 min was measured using the same software. Immobility was defined as mouse hanging passively and motionless. The ANY-Maze software parameters were set as follows: acclimatization period = 120 s, test duration = 240 s, minimum immobility time = 2 s, and immobility sensitivity = 75%. […]

Sprague-Dawley rats = test: Reserpine-induced hypothermia in rats; format: in vivo; conditions: reserpine 4 mg/kg i.p. rats, oral, 30 min after treatment; BUP 40 mg/kg, deDM 5 and 10 mg/kg, deDM + BUP 5 + 40 and 10 + 40 mg/kg
Description: A reserpine-induced hypothermia test was performed according to the method described by Rojas-Corrales et al. ([Rojas-Corrales et al., 2004]; [Dhamija et al., 2017]), with some modifications. 80 male Sprague-Dawley rats were administered an intraperitoneal injection of reserpine (4 mg/kg). 18 h after the injection, rectal temperatures were measured using a rectal probe connected to a thermometer (MC-347, Omron Healthcare, Dalian, China). Rats with body temperatures not exceeding 34.5°C were considered successfully modeled. […] An additional group of ten rats not treated with reserpine served as the normal control. After the group assignment, the second phase of compound administration was initiated. The normal and model control groups received oral saline (10 mL/kg), whereas the other groups received their respective compounds orally at the specified doses, all in an equivalent volume (10 mL/kg). Rectal temperatures were measured 30 min after treatment to assess the effect of compounds in each group on the reserpine-induced hypothermia model. All experimental procedures were conducted in strict accordance with guidelines approved by the Institutional Animal Care and Use Committee of Shenzhen Salubris Pharmaceuticals Co., Ltd. A P value of less than 0.05 was considered statistically significant for comparisons between groups.

[3] = Pharmacokinetic study in C57BL/6 mice; format: in vivo; conditions: male, C57BL/6, mouse, plasma, po, 20 mg/kg
Text: The assay was built in a way similar to that previously published by [Beconi et al. (2011)] with some modifications. A total of 36 male C57BL/6 mice, weighing between 20 and 22 g, were randomly divided into four groups of nine mice each. […] Mice in each group were numbered 1–9. Following the oral administration of the compounds in each group, blood was collected from the jugular vein at the specified time points, with three mice at each time point and two to three times for each mouse. 1–3 numbered mice had blood collection time points of 0.25, 1.5, and 7 h after the administration of the compounds, 4–6 numbered mice had blood collection time points of 0.5, 2, and 24 h after the administration of the compounds, and 7–9 numbered mice had blood collection time points of 1 and 5 h after the administration of the compounds. All blood samples were collected without anesthesia, and blood was collected in heparinized EP tubes. Plasma was obtained by centrifuging the blood at 10,000 rpm for 2 min at 4°C.

[4] = target: T1, norepinephrine transporter (Homo sapiens, UniProt P23975); test: Norepinephrine transporter (NET) radioligand binding (3H-Nisoxetine)
T1 construct: purchased PerkinElmer, Inc RBHNETM400UA
Description: The experiments were carried out in the Pharmaron laboratory, and the methods were referenced from previous studies with modifications ([Bylund and Toews, 1993]; [Galli et al., 1995]). Competitive binding of the compound and ^3H-Nisoxetine to NETs was assessed using a radioligand binding method. The ability of the compound to competitively bind to NET (Ki) was determined by detecting the signal value of the radioligand bound to the transporter using a Microbeta instrument (2450, Perkin Elmer, Massachusetts, United States).

[5] = Pharmacokinetics in male SD rat after oral administration; format: in vivo; conditions: male, SD, rat, in vivo, po, 50 mg/kg
Text: Results expressed as mean, n=3 per group

Sigma-1 receptor = target: T2, Sigma-1 receptor (Homo sapiens, UniProt Q99720); test: Sigma 1 receptor radioligand binding (3H-pentazocine, Jurkat cells)
T2 construct: to the Sigma-1 receptor (Sigma-1R) of human-derived Jurkat cells; host or cells: Jurkat cells
Description: The experiments were carried out in the Eurofins Discovery laboratory, and the methods were referenced from previous studies with modifications ([Prasad et al., 1999]). Competitive binding of the samples and ^3H-pentazocine to the Sigma-1 receptor (Sigma-1R) of human-derived Jurkat cells was assessed using a radioligand binding method. The ability of the compound to bind competitively to the Sigma-1 receptor (Ki) was determined by detecting the signal value of the radioligand bound to the receptor.

[6] = Metabolic stability in liver microsomes; format: in vitro ADME, human
Description: All incubations were performed in duplicates. Verapamil was used as the positive control. After pre-warming the mixture for 5 min, reactions were initiated by the addition of NADPH (1 mM). Samples (30 μL) were taken at 0, 20, and 60 min, and the reaction was immediately terminated by adding 150 μL acetonitrile containing an analytical internal standard (IS). Samples were centrifuged at 4,000 rpm for 5 min in a centrifuge (5810R, Eppendorf, Germany), and the supernatant was analyzed by LC-MS/MS (Thermo Scientific TSQ Quantum Ultra, United States).
The in vivo clearance values (CLint = CLint, in vitro × (mg protein/g liver weight) × (g liver weight/kg body weight)) of humans were predicted by CLint, in vitro values using physiologically-based scaling factors, hepatic microsomal protein concentrations (48.8 mg protein/g liver), and liver weights (25.7 g/kg body weight). The in vivo hepatic clearance (CLH= (Q × CLint)/(Q + CLint)) was then calculated by using CLint and hepatic blood flow, Q (20.7 mL·min^−1·kg^−1 in humans).

nAchR α3β4 = target: T3, nAchR α3β4 (Homo sapiens, UniProt P30926+P32297); test: nAchR α3β4 radioligand binding (125I-epibatidine, recombinant CHO-K1 cells)
T3 construct: host or cells: CHO-K1
Description: The experiments were carried out in the Eurofins Discovery laboratory, and the methods were referenced from previous studies with modifications ([Michelmore et al., 2002]; [Zaveri et al., 2010]). The competitive binding of the samples and ^125I-epibatidine to the nAchR α3β4 in human recombinant CHO-K1 cells was assessed using a radioligand binding method. The ability of the compound to competitively bind to nAchR α3β4 (Ki) was determined by detecting the signal value of the radioligand bound to the receptor.

NMDA receptor = conditions: for Ki: read-out: Ki, NMDA receptor, 3H-MK801 competition, rat brain membranes, mean, n = 4
Description: Membrane preparation was performed as previously described ([Werling et al., 2007]). Briefly, the brains of male Sprague-Dawley rats were dissected for tissue collection. The tissue was then homogenized in ice-cold extraction solution and centrifuged at 40,000 × g for 10 min (minute). The supernatant was discarded, the precipitate was resuspended in extraction solution, and the above steps were repeated two times. Finally, the precipitate was resuspended in a 10-fold volume of resuspension solution and stored at −80°C. Protein concentration was determined using a PierceTM BCA Protein Assay Kit. The competitive binding of the compound and ^3H-MK801 to the NMDA receptor was evaluated utilizing the filtration binding method. This method involves washing unbound radioligands and subsequently quantifying the signal values of the radioligands bound to the NMDA receptor using a Microbeta instrument (catalog number: 2450, Perkin Elmer, Massachusetts, United States).

serotonin transporter = target: T4, serotonin transporter (Homo sapiens, UniProt P31645); test: biochemical; format: binding; conditions: for Ki: radioligand competition, mean, n = 2
T4 construct: purchased PerkinElmer, Inc RBHSTM400UA
Description: The experiments were carried out in the Pharmaron laboratory, and the methods were referenced from previous studies with modifications ([Yang and Gouaux, 2021]). Competitive binding of the samples and ^3H-hydroxytryptamine creatine sulfate on SERT was assessed using a radioligand binding method. The ability of the compound to competitively bind to SERT (Ki) was determined by detecting the signal value of the radioligand bound to the transporter using a Microbeta instrument (2,450, Perkin Elmer, Massachusetts, United States).

T1 sequence (P23975 whole entry): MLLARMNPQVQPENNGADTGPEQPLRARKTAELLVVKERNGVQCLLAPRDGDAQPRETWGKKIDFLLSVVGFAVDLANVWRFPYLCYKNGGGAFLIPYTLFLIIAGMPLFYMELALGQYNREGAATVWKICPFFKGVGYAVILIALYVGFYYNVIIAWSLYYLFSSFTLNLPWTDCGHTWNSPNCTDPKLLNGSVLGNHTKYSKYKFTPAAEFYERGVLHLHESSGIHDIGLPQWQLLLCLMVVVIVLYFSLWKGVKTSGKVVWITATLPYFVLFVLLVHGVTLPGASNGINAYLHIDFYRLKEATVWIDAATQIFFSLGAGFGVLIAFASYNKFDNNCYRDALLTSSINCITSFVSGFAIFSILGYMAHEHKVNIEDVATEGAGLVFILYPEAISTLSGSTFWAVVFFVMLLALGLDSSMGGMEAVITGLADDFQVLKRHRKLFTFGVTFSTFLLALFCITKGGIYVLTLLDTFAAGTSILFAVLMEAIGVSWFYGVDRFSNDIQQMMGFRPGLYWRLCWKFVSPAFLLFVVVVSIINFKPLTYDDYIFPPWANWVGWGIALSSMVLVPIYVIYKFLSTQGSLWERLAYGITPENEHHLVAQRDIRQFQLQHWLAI
T4 sequence (P31645 whole entry): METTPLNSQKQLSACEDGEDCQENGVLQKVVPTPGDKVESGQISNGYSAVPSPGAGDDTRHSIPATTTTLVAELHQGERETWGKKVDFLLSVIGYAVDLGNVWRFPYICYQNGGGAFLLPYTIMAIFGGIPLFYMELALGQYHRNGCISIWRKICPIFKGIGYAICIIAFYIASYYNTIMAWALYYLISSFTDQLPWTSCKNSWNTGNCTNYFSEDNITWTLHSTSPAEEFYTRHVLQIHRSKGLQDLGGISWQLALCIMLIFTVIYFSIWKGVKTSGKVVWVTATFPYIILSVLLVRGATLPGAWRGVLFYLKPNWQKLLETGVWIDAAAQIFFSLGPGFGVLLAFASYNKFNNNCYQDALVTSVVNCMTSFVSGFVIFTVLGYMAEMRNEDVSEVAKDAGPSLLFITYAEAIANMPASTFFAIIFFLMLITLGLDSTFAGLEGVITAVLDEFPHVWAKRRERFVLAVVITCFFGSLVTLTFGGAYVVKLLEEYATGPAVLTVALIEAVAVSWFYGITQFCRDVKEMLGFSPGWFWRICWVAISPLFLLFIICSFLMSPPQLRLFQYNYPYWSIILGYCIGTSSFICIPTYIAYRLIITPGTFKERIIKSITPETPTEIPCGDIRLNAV
T2 sequence (Q99720 whole entry): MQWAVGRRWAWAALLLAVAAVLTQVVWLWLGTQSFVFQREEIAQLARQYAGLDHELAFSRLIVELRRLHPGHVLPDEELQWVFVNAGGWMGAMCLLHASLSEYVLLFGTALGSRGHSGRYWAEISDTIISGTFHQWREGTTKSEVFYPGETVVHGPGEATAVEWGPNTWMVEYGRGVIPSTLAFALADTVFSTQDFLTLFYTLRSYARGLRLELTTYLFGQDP
T3 sequence (P32297 32-505): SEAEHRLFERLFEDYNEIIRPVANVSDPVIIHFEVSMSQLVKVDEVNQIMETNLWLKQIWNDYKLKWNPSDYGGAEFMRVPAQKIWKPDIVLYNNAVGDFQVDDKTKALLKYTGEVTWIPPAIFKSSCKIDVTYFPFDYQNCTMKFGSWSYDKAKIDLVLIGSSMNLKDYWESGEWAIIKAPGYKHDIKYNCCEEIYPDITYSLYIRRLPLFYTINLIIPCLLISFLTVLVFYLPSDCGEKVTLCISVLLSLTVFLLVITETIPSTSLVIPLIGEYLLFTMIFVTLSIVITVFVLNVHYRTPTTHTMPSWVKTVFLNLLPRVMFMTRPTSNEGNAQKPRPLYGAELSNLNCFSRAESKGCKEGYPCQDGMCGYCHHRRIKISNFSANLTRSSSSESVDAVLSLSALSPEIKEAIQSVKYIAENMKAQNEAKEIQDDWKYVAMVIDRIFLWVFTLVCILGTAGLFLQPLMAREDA
T3 sequence (P30926 22-498): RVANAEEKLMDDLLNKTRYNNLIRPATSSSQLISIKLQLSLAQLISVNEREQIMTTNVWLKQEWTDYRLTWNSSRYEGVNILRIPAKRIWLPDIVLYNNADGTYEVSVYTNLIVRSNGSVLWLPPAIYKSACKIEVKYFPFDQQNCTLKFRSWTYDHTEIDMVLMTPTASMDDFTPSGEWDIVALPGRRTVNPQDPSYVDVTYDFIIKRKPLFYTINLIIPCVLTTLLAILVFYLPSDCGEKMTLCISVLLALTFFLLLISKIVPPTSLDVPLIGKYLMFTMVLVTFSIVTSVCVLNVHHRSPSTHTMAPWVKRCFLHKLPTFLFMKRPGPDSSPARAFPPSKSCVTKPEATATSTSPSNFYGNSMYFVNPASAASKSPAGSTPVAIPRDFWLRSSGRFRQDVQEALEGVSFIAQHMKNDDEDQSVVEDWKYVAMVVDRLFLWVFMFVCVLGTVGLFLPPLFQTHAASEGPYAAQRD

CC(NC(C)(C)C)C(=O)c1cccc(Cl)c1 (centres unmarked) [BUP, bupropion]
floating time compared to the vehicle group (ICR mice [1]): significantly reduced the floating time | cough inhibition rate (C57BL/6J mice; 40 mg/kg, 0.5 h post-administration): 19.5% | cough inhibition compared with the vehicle group (C57BL/6J mice; deDM 5 and 10 mg/kg, BUP 40 mg/kg, deDM + BUP 5 + 40 and 10 + 40 mg/kg): neither deDM nor BUP significantly inhibited cough | immobilization time compared to the vehicle group (ICR mice [2]): significantly reduced the immobilization time | body temperature compared with the model (vehicle) group (Sprague-Dawley rats): significantly increased the body temperature

COc1ccc2c(c1)[C@]13CCCC[C@@H]1[C@H](C2)N(C)CC3 [DM, dextromethorphan]
AUC(0-t) [3]: 0.184 ± 0.168 µg·h/mL | Cmax ([3]; read-out: Cmax): 0.0749 ± 0.049 µg/mL | Ki [4]: 20.5 µM | AUC(0-t) [5]: 0.194 µg·h/mL | Cmax ([5]; read-out: Cmax): 0.056 µg/mL | Ki (Sigma-1 receptor): 1.67 µM | half-life at 1 μM ([6]; 1 μM, 0.5 mg/mL human liver microsomes, NADPH 1 mM, 37°C, mean, n = 2): 1.24 h | CLint scaled at 1 μM ([6]; human, liver microsomes, read-out: CLint, in vitro): 1.4 L/h/kg | CLH ([6]; in vivo hepatic clearance predicted from CLint and hepatic blood flow 20.7 mL/min/kg, human): 0.66 L/h/kg

CN1CC[C@@]23CCCC[C@@H]2[C@@H]1Cc1ccc(O)cc13 [DX, dextrorphan, reference compound]
Ki (nAchR α3β4): 9.98 µM | higher affinity for NMDA receptors compared to DM (NMDA receptor; ratio of Ki values): 7 fold | Ki (NMDA receptor): 0.22 µM | Ki [4]: 5.67 µM | Ki (Sigma-1 receptor): 2.85 µM | Ki (serotonin transporter): 0.14 µM | lower affinity for SERT compared to DM (serotonin transporter; ratio of Ki values): 17 fold

deuterated dextrorphan [deDX]
Ki (nAchR α3β4; 125I-epibatidine competition, human recombinant CHO-K1 cells, mean, n = 2, read-out: Ki, α3β4 nicotinic acetylcholine receptors): 15 µM | Ki (NMDA receptor): 0.42 µM | Ki ([4]; 3H-Nisoxetine competition, mean, n = 2, read-out: Ki, norepinephrine transporter): 7.93 µM | Ki (Sigma-1 receptor; 3H-pentazocine competition, human-derived Jurkat cells, mean, n = 2, read-out: Ki, Sigma-1 receptor): 2.86 µM | Ki (serotonin transporter): 0.12 µM
